Consider 91 compounds from PubChem BioAssay AID1963597 (National Center for Advancing Translational Sciences (NCATS), 2024).

SMILES strings stand for the structures. Where only a bound is given, the exact number is not on record here.

For the data set, the system named is human liver microsomes, metabolic stability half-life. Put plainly: NCATS Human Liver Microsomal (HLM) Stability Profiling. Particulars: higher = more stable; screened at 1 µM (by protocol). Put shortly: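 Substrate depletion (in vitro t1/2): 1 µM compound with 0.5 mg/mL microsomes and NADPH regenerating system, phosphate buffer pH 7.4, 37 °C. Sampled at 0, 5, 10, 15, 30, 60 min into cold acetonitrile with albendazole internal standard for MS quantification.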

For `CNS(=O)(=O)c1ccc(Cc2c(-c3cccc(-c4ccccc4)c3)[nH]n(-c3nc(C(=O)O)cs3)c2=O)cc1`, the half-life – broadly, the time needed for the level to fall by half in the phase considered – is over 120 min.

As to `CN/C(=C\[N+](=O)[O-])NCCSCc1csc(CN(C)C)n1`, the half-life was over 120 min.

For the compound `Cc1nc(N)ncc1-c1nc(N2CCOCC2)c2sc(C(C)(C)O)cc2n1`, the half-life is over 120 min.

On to `Cc1cccc(/C=N/Nc2cc(N3CCOCC3)n3nc(-c4ccncc4)cc3n2)c1`, for which the half-life amounted to 23.1 min.

Compound `COc1ccc(-n2nc3c(N4CCCC(C(=O)NCc5ccccc5C)C4)nnc(C)c3c2C)cc1` (stereo unspecified) gave a half-life of 2.48 min.

For `CC(=O)Nc1cccc(O)c1`, the half-life is over 120 min.

For the compound `Nc1ccccc1NC(=O)c1ccc(CNc2nccc(-c3cccnc3)n2)cc1`, the half-life was over 120 min.

`CNP(=O)(OC)Oc1ccc(C(C)(C)C)cc1Cl` (stereo unspecified) gave a half-life of 47.5 min.

As to `CC(=O)N1CCC(Cc2ccc(C(=O)NC3CC3)cc2)CC1`, the half-life is over 120 min.

Regarding `CC1(C)CC(=O)c2c(C(F)(F)F)nn(-c3ccc(C(N)=O)c(NC4CCC(OC(=O)CN)CC4)c3)c2C1` (stereo unspecified), the half-life was 1.57 min.

For `C[C@]12CCC(=O)C=C1CC[C@@H]1[C@@H]2CC[C@@]2(C)[C@H]1CC[C@]2(O)C(=O)CO`, the half-life came out at 62.1 min.

Turning to `OCc1ccccn1`, the half-life was over 120 min.

For the compound `COc1ccc(CC(=O)Nc2c(C(=O)N3CCN(c4ccccc4F)CC3)oc3ccccc23)cc1OC`, the half-life turned out to be 5.26 min.

In turn, `Nc1nccs1` displayed a half-life of 53.7 min.

Compound `CCOc1ccccc1OCCN[C@H](C)Cc1ccc(OC)c(S(N)(=O)=O)c1` returned a half-life of over 120 min.

`CCc1nc(C(N)=O)c(Nc2ccc(N3CCC(N4CCN(C)CC4)CC3)c(OC)c2)nc1NC1CCOCC1` had a half-life of over 120 min.

Take `COCCCN1CCC(NC(=O)c2cc(Cl)c(N)c3c2OCC3)CC1`: the half-life is over 120 min.

With `O=C(O)c1cccc(CN2C(=O)/C(=C(\c3ccccc3)c3ccc(Cl)cc3)c3ccccc32)c1`, the half-life was over 120 min.

For `Oc1ccccc1-c1nnco1`, the half-life turned out to be 43.3 min.

`O=C(O)CC1CCC(c2ccc(-c3ccc(Nc4ccc(C(F)(F)F)nc4)cn3)cc2)CC1` (stereo unspecified) had a half-life of over 120 min.

The compound `NC(=O)c1c(OCc2c(F)cc(Br)cc2F)nsc1NC(=O)NCCCCN1CCCC1` registered a half-life of over 120 min.

Turning to `COc1ccc(OC)c(C2C(C#N)=C(N)Oc3n[nH]c(-c4ccc5ccccc5c4)c32)c1` (stereo unspecified), the half-life was over 120 min.

For `Cn1cc(-c2[nH]c3cc(NC(=O)[C@H](N)C4CCCCC4)cc4c3c2C=NNC4=O)cn1`, the half-life was 102 min.

On to `CCNC1(C(N)=O)CN(c2nc(C)nc3c(-c4ccc(Cl)cc4)c(-c4ccccc4Cl)nn23)C1`, for which the half-life worked out at 20.5 min.

With `Cc1c(CN2CCN(C(=O)C(C)C)CC2)sc2c(N3CCOCC3)nc(-c3cnc(N)nc3)nc12`, the half-life was over 120 min.

Regarding `COC(=O)[C@@H]1CC2=CC(=O)CC[C@]2(C)[C@@]23O[C@@H]2C[C@@]2(C)[C@H](CC[C@@]24CCC(=O)O4)[C@@H]13`, the half-life is over 120 min.

Take `C/C=C(/C(=C/C)c1ccc(OC(C)=O)cc1)c1ccc(OC(C)=O)cc1`: the half-life was over 120 min.

Regarding `COc1ccc(CN2CCC3(CC(C)=NO3)C2)cc1` (stereo unspecified), the half-life came out at 19.2 min.

`COC(=O)N[C@@H](C)CNc1nccc(-c2cn(C(C)C)nc2-c2cc(Cl)cc(NS(C)(=O)=O)c2F)n1`: the half-life amounted to 34.4 min.

`COc1ccc(C(=O)NC(c2ccccc2Cl)c2cc(Cl)c3cccnc3c2O)cc1` (stereo unspecified): the half-life is 37.1 min.

`COc1cc2c(C(=O)N(C)c3cccc(C(F)(F)F)c3)cn(CC(C)C)c(=O)c2cc1OC` had a half-life of 0.93 min.

As for `CNCC[C@@H](Oc1ccccc1C)c1ccccc1`, the half-life is 23.9 min.

The compound `Cc1cccc(NC(c2ccccc2F)c2ccc3ccc(C)nc3c2O)n1` (stereo unspecified) showed a half-life of 14.1 min.

As for `FC(F)(F)Oc1ccc(-c2ccc3nnc(C(F)(F)F)n3c2)cc1`, the half-life was over 120 min.

In turn, `COC(=O)c1ccc([C@H]2c3[nH]c4ccccc4c3C[C@H](C(=O)OC)N2C(=O)CCl)cc1` had a half-life of 8.55 min.

Turning to `Cc1ccc(C)c(N2CCN(CCCNC(=O)c3ccc4nc(C(C)C)oc4c3)CC2)c1`, the half-life came to 13.8 min.

On to `CCC1=c2cc(OC(=O)N3CCC(N4CCCCC4)CC3)ccc2=NC2=C3C=C4C(COC(=O)[C@]4(O)CC)C(=O)N3CC21` (stereo partly specified), for which the half-life is over 120 min.

Take `O=C(Cn1ccnc1[N+](=O)[O-])NCc1ccccc1`: the half-life was over 120 min.

On to `O=c1oc2ccccc2c(O)c1Cc1c(O)c2ccccc2oc1=O`, for which the half-life was found to be 33.3 min.

Turning to `COc1ccc(-c2oc3cc(OC)ccc3c2C(=O)c2ccc(C#N)cc2)cc1`, the half-life came out at 20.6 min.

`CCN(CC)CC(=O)Nc1c(C)cccc1C(=O)OC` had a half-life of 24 min.

On to `COc1ccc(CN(CCN(C)C)c2ncccn2)cc1`, for which the half-life came out at 8.72 min.

Consider `CC1=C2[C@H]3OC(=O)[C@@H](C)[C@@H]3CC[C@@]2(C)C=CC1=O`, for which the half-life was over 120 min.

As for `CN(C)c1nc(NC2CCC(NCCc3ccc(Br)cc3OC(F)(F)F)CC2)nc2ccccc12` (stereo unspecified), the half-life is over 120 min.

`COCC1(CO)C(=O)C2CCN1CC2` (stereo unspecified): the half-life was over 120 min.

Consider `COc1ccc(-c2cc(=S)ss2)cc1`, for which the half-life was found to be 0.73 min.

In turn, `C[C@@H]1C[C@H]2[C@@H]3CCC4=CC(=O)C=C[C@]4(C)[C@@]3(F)[C@@H](O)C[C@]2(C)[C@H]1C(=O)CO` displayed a half-life of 57.3 min.

For `CC(C)(C)c1cnc(CSc2cnc(NC(=O)C3CCNCC3)s2)o1`, the half-life was over 120 min.

Consider `CC1(C)C(=O)C(C)(C)c2cc(C(=O)Nc3ccc(C(=O)O)cc3)ccc21`, for which the half-life is over 120 min.

Compound `O=C1CCC(c2ccccc2)(C2CCN(Cc3ccc(I)cc3)CC2)C(=O)N1` (stereo unspecified) yielded a half-life of over 120 min.

Compound `CC(=O)N1CCC(Cc2ccc(C(=O)O)cc2)CC1` had a half-life of over 120 min.

`O=C(O)c1cn(C2CC2)c2cc(Cl)c(F)cc2c1=O` gave a half-life of over 120 min.

Consider `COc1ccc2nc(S(=O)Cc3ncc(C)c(OC)c3C)[nH]c2c1` (stereo unspecified), for which the half-life was over 120 min.

`CCc1nn(CCCN2CCN(c3cccc(Cl)c3)CC2)c(=O)n1CCOc1ccccc1`: the half-life was 0.98 min.

Consider `CC(C)c1ccccc1OC(=O)NCCc1ccc2ccccc2c1`, for which the half-life stood at 4.54 min.

Compound `CC1CCN(CC(=O)N2CCCc3c2c(=O)oc2ccc(OCc4ccccc4)cc32)CC1` registered a half-life of 1.52 min.

As for `Nc1ncnc2c1c(COc1cccc(Cl)c1)nn2C1CCOCC1`, the half-life turned out to be 39.9 min.

Compound `N#Cc1ccc(C(=O)Nc2ccc(Cl)c(-c3nc4cc(Cl)ccc4o3)c2)c(F)c1` displayed a half-life of 15.4 min.

In turn, `CCCN(CCC)CCc1cccc2c1CC(=O)N2` gave a half-life of over 120 min.

`CC(=O)N1C[C@H](O)C[C@H]1C(=O)O` displayed a half-life of 50.1 min.

Consider `COc1nccc(-c2c(-c3ccc(F)cc3)ncn2C2CCNCC2)n1`, for which the half-life is over 120 min.

In turn, `Cc1c(C)n(Cc2ccc(-c3ccccc3C(=O)O)cc2)c2ccc(C(=O)N[C@@H](C)c3ccc([N+](=O)[O-])cc3)cc12` showed a half-life of over 120 min.

`CCOC(=O)c1ccc(O)cc1` showed a half-life of 61 min.

Compound `CCN[C@H]1C[C@H](C)S(=O)(=O)C2SC(S(N)(=O)=O)C=C21` (stereo partly specified) displayed a half-life of 105 min.

`COCC(=O)NCC=Cc1ccc2ncnc(Nc3ccc(Oc4ccc(C)nc4)c(C)c3)c2c1` had a half-life of 22.7 min.

The compound `CCC(=C(c1ccccc1)c1ccc(OCCN(C)C)cc1)c1ccccc1` showed a half-life of 94.5 min.

`Cc1ccc(NC(=O)Cn2c(=O)n(CCC(=O)N3CCc4ccccc4C3)c(=O)c3ccccc32)c(C)c1` came in with a half-life of 1.41 min.

In turn, `COc1cc2c(NC3CCN(CC4CCCCC4)CC3)nc(N3CCCN(C(C)C)CC3)nc2cc1OCCCN1CCCCC1` came in with a half-life of 30 min.

In turn, `CCOCc1cc(CN2CCN(c3cccc(C(F)(F)F)c3)CC2)c(O)c2ncccc12` registered a half-life of 12.6 min.

`FC(F)c1nc2ccccc2n1-c1nc(N2CCOCC2)nc(N2CCOCC2)n1` registered a half-life of 25.4 min.

As for `COc1cc(C(c2c(C)[nH][nH]c2=O)c2c(C)[nH][nH]c2=O)ccc1OC(=O)c1ccccc1F`, the half-life came out at 1.83 min.

For `NC(=Nc1ccccc1)Nc1ccccc1`, the half-life was over 120 min.

Compound `CC(=O)O[C@]1(C(C)=O)CC[C@H]2[C@@H]3C=C(Cl)C4=CC(=O)CC[C@]4(C)[C@H]3CC[C@@]21C` had a half-life of 36.7 min.

With `CC1=NOC2(CCN(Cc3ccc(C#N)cc3)C2)C1` (stereo unspecified), the half-life is over 120 min.

As for `O=C(O)CN1C(=O)c2cccc3cccc(c23)C1=O`, the half-life was over 120 min.

`Cc1cccc(N2CCN(C(=O)CCC(=O)NNc3nc4ccccc4c4nc(C)nn34)CC2C)c1` (stereo unspecified): the half-life is 6.71 min.

`CC(C)c1ccc2oc3nc(N)c(C(=O)O)cc3c(=O)c2c1` gave a half-life of over 120 min.

`CS(=O)(=O)c1ccc([C@@H](O)[C@@H](CO)NC(=O)C(Cl)Cl)cc1`: the half-life is over 120 min.

Take `Cc1ccc(-n2c(SCc3ccccc3F)nc3[nH]ncc3c2=O)cc1C`: the half-life was determined as 21.6 min.

`CN1C(C)(C)CCCC1(C)C`: the half-life was over 120 min.

Turning to `CCCn1cc2c(nc(NC(=O)Nc3ccc(OC)cc3)n3nc(-c4ccco4)nc23)n1`, the half-life is over 120 min.

The compound `O=C(O)c1ccccc1NCCc1ccccc1` showed a half-life of 23.8 min.

As to `ClCCN1CCCC1`, the half-life was 55.7 min.

Take `CN1CCN(C2CCC(n3cc(-c4ccc(Oc5ccccc5)cc4)c4c(N)ncnc43)CC2)CC1` (stereo unspecified): the half-life turned out to be 58.6 min.

As to `CCOP(=S)(OCC)O/N=C(\C#N)c1ccccc1`, the half-life amounted to 8.67 min.

In the case of `Oc1c(Cl)cc(Cl)c2cccnc12`, the half-life was 25.2 min.

In turn, `CCOC(=O)c1sc(NC(=O)c2c(-c3ccccc3)c(-c3ccccc3)nn(C)c2=O)nc1C` gave a half-life of over 120 min.

In turn, `COc1ccc(C2c3c(oc4ccc(Cl)cc4c3=O)C(=O)N2CCCN(C)C)cc1OC` (stereo unspecified) yielded a half-life of over 120 min.

Compound `CCN(CC)C(=O)c1ccc(Nc2nc(OCC3CCCCC3)c3[nH]cnc3n2)cc1` showed a half-life of 8.96 min.

In the case of `CN1c2cc(C(=O)Nc3ccc(S(N)(=O)=O)cc3)ccc2C(=O)N2CCCCC21` (stereo unspecified), the half-life was determined as 32.8 min.

On to `C[C@@H](Oc1cc(-n2cnc3ccc(OC4CCN(C)CC4)cc32)sc1C(N)=O)c1ccccc1C(F)(F)F`, for which the half-life stood at 8.99 min.
